What was measured:
Type in all cases: physicochemical
[1] = Induction of ROS generation in water/cremophor/DMF solution by SOSG-based fluorescence assay; settings: buffer
[2] = Induction of ROS generation in MeOH/PBS solution by SOSG-based fluorescence assay; settings: buffer
[3] = Induction of ROS generation in MeOH/PBS solution by AUR-based fluorescence assay; settings: buffer
[4] = Induction of ROS generation in RPMI-1640 cell culture media/DMSO/cremophor solution by AUR-based fluorescence assay
[5] = Induction of ROS generation in RPMI-1640 cell culture media/DMSO/cremophor solution by SOSG-based fluorescence assay
[6] = Induction of ROS generation in water/cremophor/DMF solution by AUR-based fluorescence assay; settings: buffer

Measured: Activity

CC[C@H]1c2cc3[nH]c4c(c3C)C(=O)[C@H](C(=O)OC)c4c3nc(cc4[nH]c(cc(n2)[C@@H]1C)c(C(C)=O)c4C)[C@@H](C)[C@@H]3CCC(=O)OC
Active: all assays above

CC[C@H]1c2cc3[nH]c4c(c3C)C(=O)[C@H](C(=O)OC)c4c3nc(cc4[nH]c(cc(n2)[C@@H]1C)c(C(C)=O)c4C)[C@@H](C)[C@@H]3CCC(=O)NCCS(=O)(=O)O
Active: all assays above

CC[C@H]1c2cc3[nH]c4c(c3C)C(=O)[C@H](C(=O)OC)c4c3nc(cc4[nH]c(cc(n2)[C@@H]1C)c(C(C)=O)c4C)[C@@H](C)[C@@H]3CCC(=O)OCC[N+](C)(C)C
Active: all assays above

CC[C@H]1c2cc3[nH]c(c(CC(=O)OC)c4nc(cc5[nH]c(cc(n2)[C@@H]1C)c(C(C)=O)c5C)[C@@H](C)[C@@H]4CCC(=O)OCC[N+](C)(C)C)c(C(=O)NCCS(=O)(=O)O)c3C
Active: all assays above

CC[C@H]1c2cc3[nH]c(c(CC(=O)OC)c4nc(cc5[nH]c(cc(n2)[C@@H]1C)c(C(C)=O)c5C)[C@@H](C)[C@@H]4CCC(=O)OC)c(C(=O)NCCS(=O)(=O)O)c3C
Active: all assays above

CC[C@H]1c2cc3[nH]c(c(CC(=O)OC)c4nc(cc5[nH]c(cc(n2)[C@@H]1C)c(C(C)=O)c5C)[C@@H](C)[C@@H]4CCC(=O)O)c(C(=O)NCCS(=O)(=O)O)c3C
Active: all assays above

CC[C@H]1c2cc3[nH]c4c(c3C)C(=O)[C@H](C(=O)OC)c4c3nc(cc4[nH]c(cc(n2)[C@@H]1C)c(C(C)=O)c4C)[C@@H](C)[C@@H]3CCC(=O)O
Active: all assays above

CC[C@H]1c2cc3[nH]c(c(CC(=O)OC)c4nc(cc5[nH]c(cc(n2)[C@@H]1C)c(C(C)=O)c5C)[C@@H](C)[C@@H]4CCC(=O)NCCS(=O)(=O)O)c(C(=O)NCCS(=O)(=O)O)c3C
Active: all assays above
